Measurements from ChEMBL document CHEMBL1139057, “Rotenoids and flavonoids with anti-invasion of HT1080, anti-proliferation of U937, and differentiation-inducing activity in HL-60 from Erycibe expansa” (Bioorg Med Chem, 2007).
pIC50: −log10 of the molar value. Active and inactive are the calls of the source. No cut-off for these calls is given here.

What was measured:
[1] = tested on: HL-60; assay: Induction of human HL60 cells differentiation assessed as number of cells at 0.01 uM after 72 hrs by NBT reduction test; type: functional
[2] = tested on: HL-60; assay: Induction of human HL60 cells differentiation assessed as number of cells at 0.02 uM after 72 hrs by NBT reduction test; type: functional
[3] = tested on: HL-60; assay: […] human HL60 cells assessed NBT positive cells at 0.01 uM after 72 hrs by NBT reduction test; type: functional
[4] = tested on: HL-60; assay: […] human HL60 cells assessed NBT positive cells at 0.02 uM after 72 hrs by NBT reduction test; type: functional
[5] = tested on: HT-1080; assay: Antiproliferative activity against human HT1080 cells at 10 uM after 24 hrs by calcein-AM assay; type: functional; conditions: HT-1080, 24 h
[6] = tested on: HT-1080; assay: Antiproliferative activity against human HT1080 cells at 1 uM after 24 hrs by MTT assay; type: functional; conditions: HT-1080, 24 h
[7] = tested on: HT-1080; assay: Antiproliferative activity against human HT1080 cells at 1 uM after 48 hrs by calcein-AM assay; type: functional; conditions: HT-1080, 48 h
[8] = tested on: HT-1080; assay: Antiproliferative activity against human HT1080 cells at 30 uM after 24 hrs by MTT assay; type: functional; conditions: HT-1080, 24 h
[9] = tested on: HT-1080; assay: Inhibition of proMMP2 production in human HT1080 cells by gelatin zymography analysis; type: functional, cell-based
[10] = tested on: HT-1080; assay: Antiproliferative activity against human HT1080 cells at 30 uM after 24 hrs by calcein-AM assay; type: functional; conditions: HT-1080, 24 h
[11] = tested on: HT-1080; assay: Antiproliferative activity against human HT1080 cells at 3 uM after 48 hrs by calcein-AM assay; type: functional; conditions: HT-1080, 48 h
[12] = tested on: HT-1080; assay: Antiproliferative activity against human HT1080 cells at 3 uM after 24 hrs by calcein-AM assay; type: functional; conditions: HT-1080, 24 h
[13] = tested on: U-937; assay: Antiproliferative activity against human U937 cells after 24 hrs by WST-8 assay; type: functional, cell-based; conditions: U-937, 24 h
[14] = tested on: HT-1080; assay: Inhibition of invasion of human HT1080 cells at 3 uM after 24 hrs; type: functional; conditions: HT-1080, 24 h
[15] = tested on: HT-1080; assay: Antiproliferative activity against human HT1080 cells at 1 uM after 24 hrs by calcein-AM assay; type: functional; conditions: HT-1080, 24 h
[16] = tested on: HT-1080; assay: Antiproliferative activity against human HT1080 cells at 3 uM after 24 hrs by MTT assay; type: functional; conditions: HT-1080, 24 h
[17] = tested on: HL-60; assay: Induction of human HL60 cells differentiation assessed as number of cells at 20 uM after 72 hrs by NBT reduction test; type: functional
[18] = tested on: U-937; assay: Antiproliferative activity against human U937 cells after 72 hrs by WST-8 assay; type: functional, cell-based; conditions: U-937, 72 h
[19] = tested on: HT-1080; assay: Antiproliferative activity against human HT1080 cells at 10 uM after 48 hrs by calcein-AM assay; type: functional; conditions: HT-1080, 48 h
[20] = tested on: HT-1080; assay: Antiproliferative activity against human HT1080 cells at 30 uM after 48 hrs by calcein-AM assay; type: functional; conditions: HT-1080, 48 h
[21] = tested on: HT-1080; assay: Antiproliferative activity against human HT1080 cells at 10 uM after 72 hrs by MTT assay; type: functional; conditions: HT-1080, 72 h
[22] = tested on: HT-1080; assay: Inhibition of invasion of human HT1080 cells at 10 uM after 24 hrs; type: functional; conditions: HT-1080, 24 h
[23] = tested on: U-937; assay: Antiproliferative activity against human U937 cells after 48 hrs by WST-8 assay; type: functional, cell-based; conditions: U-937, 48 h
[24] = tested on: HT-1080; assay: Antiproliferative activity against human HT1080 cells at 30 uM after 72 hrs by MTT assay; type: functional; conditions: HT-1080, 72 h
[25] = tested on: HT-1080; assay: Antiproliferative activity against human HT1080 cells at 1 uM after 72 hrs by MTT assay; type: functional; conditions: HT-1080, 72 h
[26] = tested on: HT-1080; assay: Antiproliferative activity against human HT1080 cells at 3 uM after 48 hrs by MTT assay; type: functional; conditions: HT-1080, 48 h
[27] = tested on: HT-1080; assay: Antiproliferative activity against human HT1080 cells at 10 uM after 24 hrs by MTT assay; type: functional; conditions: HT-1080, 24 h
[28] = tested on: HT-1080; assay: Inhibition of proMMP9 production in human HT1080 cells by gelatin zymography analysis; type: functional, cell-based
[29] = tested on: HT-1080; assay: Antiproliferative activity against human HT1080 cells at 1 uM after 48 hrs by MTT assay; type: functional; conditions: HT-1080, 48 h
[30] = tested on: HT-1080; assay: Antiproliferative activity against human HT1080 cells at 10 uM after 72 hrs by calcein-AM assay; type: functional; conditions: HT-1080, 72 h
[31] = tested on: HT-1080; assay: Antiproliferative activity against human HT1080 cells at 30 uM after 48 hrs by MTT assay; type: functional; conditions: HT-1080, 48 h
[32] = tested on: HL-60; assay: Induction of human HL60 cells differentiation assessed as number of cells at 10 uM after 72 hrs by NBT reduction test; type: functional
[33] = tested on: HT-1080; assay: Inhibition of invasion of human HT1080 cells at 30 uM after 24 hrs; type: functional; conditions: HT-1080, 24 h
[34] = tested on: HL-60; assay: […] human HL60 cells assessed NBT positive cells at 30 uM after 72 hrs by NBT reduction test; type: functional
[35] = tested on: HT-1080; assay: Antiproliferative activity against human HT1080 cells at 3 uM after 72 hrs by MTT assay; type: functional; conditions: HT-1080, 72 h
[36] = tested on: HT-1080; assay: Antiproliferative activity against human HT1080 cells at 1 uM after 72 hrs by calcein-AM assay; type: functional; conditions: HT-1080, 72 h
[37] = tested on: HL-60; assay: […] human HL60 cells assessed NBT positive cells at 10 uM after 72 hrs by NBT reduction test; type: functional
[38] = tested on: HT-1080; assay: Antiproliferative activity against human HT1080 cells at 30 uM after 72 hrs by calcein-AM assay; type: functional; conditions: HT-1080, 72 h
[39] = tested on: HT-1080; assay: Inhibition of invasion of human HT1080 cells at 1 uM after 24 hrs; type: functional; conditions: HT-1080, 24 h
[40] = tested on: HT-1080; assay: Antiproliferative activity against human HT1080 cells at 3 uM after 72 hrs by calcein-AM assay; type: functional; conditions: HT-1080, 72 h
[41] = tested on: HT-1080; assay: Antiproliferative activity against human HT1080 cells at 10 uM after 48 hrs by MTT assay; type: functional; conditions: HT-1080, 48 h

Row | SMILES | inhibition at 10 µM [5] [%] | inhibition at 1 µM [6] [%] | inhibition at 1 µM [7] [%] | inhibition at 30 µM [8] [%] | Activity [9] | inhibition at 30 µM [10] [%] | inhibition at 3 µM [11] [%] | inhibition at 3 µM [12] [%] | pIC50 [13] | inhibition at 3 µM [14] [%] | inhibition at 1 µM [15] [%] | inhibition at 3 µM [16] [%] | Activity [17] | pIC50 [18] | inhibition at 10 µM [19] [%] | inhibition at 30 µM [20] [%] | inhibition at 10 µM [21] [%] | inhibition at 10 µM [22] [%] | pIC50 [23] | inhibition at 30 µM [24] [%] | also measured
1 | C=C1/C(=C\C=C2/CCC[C@]3(C)[C@@H]([C@H](C)CCCC(C)(C)O)CC[C@@H]23)C[C@@H](O)C[C@@H]1O [CALCITRIOL] | – | – | – | – | – | – | – | – | – | – | – | – | – | – | – | – | – | – | – | – | Activity [1]: 8 10^5/ml; Activity [2]: 6.8 10^5/ml; Activity [3]: 15.6%; Activity [4]: 27.9%
2 | COc1cc2c(cc1OC)[C@@H]1C(=O)c3ccc4c(c3O[C@@H]1CO2)C=CC(C)(C)O4 [DEGUELIN] | -1.8 | 6.3 | 35.2 | 10.9 | Active | 17 | 44.2 | -0.9 | 4.38 | 50.2 | 10.5 | 8.6 | 0.3 10^5/ml | 5.24 | 51 | 40.4 | 98.8 | 58 | 4.80 | 98.9 | inhibition at 1 µM [25]: 98.2%; inhibition at 3 µM [26]: 96.5%; inhibition at 10 µM [27]: 10.7%; Activity [28]: Active; inhibition at 1 µM [29]: 78.3%; inhibition at 10 µM [30]: 98.5%; inhibition at 30 µM [31]: 97.3%; Activity [32]: 2.1 10^5/ml; inhibition at 30 µM [33]: 57.9%; Activity [34]: 22.2%; inhibition at 3 µM [35]: 98.7%; inhibition at 1 µM [36]: 95.3%; Activity [37]: 12.5%; inhibition at 30 µM [38]: 98.5%; inhibition at 1 µM [39]: 38%; inhibition at 3 µM [40]: 98.5%; inhibition at 10 µM [41]: 97.7%
3 | COc1cc2c(cc1OC)[C@]1(O)C(=O)c3ccc4c(c3O[C@@H]1CO2)C=CC(C)(C)O4 [TEPHROSIN] | 5.9 | -1.9 | 54 | 3.8 | Active | 13.7 | 63 | 7 | 4.52 | 29.6 | 5 | 0.8 | 1 10^5/ml | 5.14 | 67.7 | 83.2 | 98.9 | 49.2 | 4.64 | 98.6 | inhibition at 1 µM [25]: 98.7%; inhibition at 3 µM [26]: 97.9%; inhibition at 10 µM [27]: 2%; Activity [28]: Active; inhibition at 1 µM [29]: 96.4%; inhibition at 10 µM [30]: 98.2%; inhibition at 30 µM [31]: 98%; Activity [32]: 4.5 10^5/ml; inhibition at 30 µM [33]: 67.6%; Activity [34]: 8.4%; inhibition at 3 µM [35]: 98.7%; inhibition at 1 µM [36]: 97.8%; Activity [37]: 5.9%; inhibition at 30 µM [38]: 98.3%; inhibition at 1 µM [39]: -9.3%; inhibition at 3 µM [40]: 97.9%; inhibition at 10 µM [41]: 98.1%
